In US11629174B2, “Cryptic metabolites and method for activating silent biosynthetic gene clusters in actinomycete bacteria” (The Trustees of Princeton University, priority 2017, dated 2023):

Tests used:
S. avermitilis = assay: Growth inhibition of S. avermitilis by elicitor; assay type: cell-based; settings: dose-response series in 2.5 ug/mL steps
SAV3643 and SAV3665 = assay: RT-qPCR of SAV3643 and SAV3665 in cluster 3648; assay type: cell-based, S. avermitilis; settings: 5 ug/mL, relative to untreated samples
Gene cluster 3648 = assay: HiTES in S. avermitilis, gene cluster 3648; assay type: cell-based; settings: FIGS. 16 and 17
Gene cluster 4286 = assay: HiTES in S. erythraea, gene cluster 4286; assay type: cell-based; settings: FIG. 13
Gene cluster 4477 = assay: HiTES in S. erythraea, gene cluster 4477; assay type: cell-based; settings: FIG. 14
Gene cluster 4143 = assay: HiTES in S. erythraea, gene cluster 4143; assay type: cell-based; settings: FIG. 12
Gene cluster 2875 = assay: HiTES in S. erythraea, gene cluster 2875; assay type: cell-based; settings: FIG. 11
Gene cluster 2631 = assay: HiTES in S. erythraea, gene cluster 2631; assay type: cell-based; settings: FIG. 10
surA and surC = assay: RT-qPCR of surA and surC transcripts in wt S. albus; assay type: cell-based, Streptomyces albus J1074
Experimental: In the example above, the effects of these putative elicitors on the sur cluster were validated by performing a RT-qPCR with wt S. albus. Upon exposure of S. albus to each elicitor or DMSO (control), total RNA was be isolated, converted to cDNA and the surA and surC transcripts quantified by qPCR. […] To further verify the effect of 1 and 2, a dose-response assay was carried out. With both elicitors, a concentration-dependent induction of sur was observed, yielding optimal upregulation at a final concentration of ˜23 μM (etoposide) and −30 μM (ivermectin) (FIG. 4B). These concentrations induced a ˜10-fold (etoposide) and 4.5-fold (ivermectin) upregulation of surC.
All operations involving RNA utilized a dedicated RNase-free work area. To commence the experiment, seed cultures of wt S. albus J1074 were prepared by inoculating 3 ml of TSBY medium (3% (w/v) tryptic soy broth and 0.5% yeast extract) in a sterile 14 ml bacterial culture tube with freshly-prepared spores (˜10^7). The culture was incubated at 30° C. and 250 rpm in an Ecotron Shaker (ATR). After 48 hours cultivation, the cells were collected by centrifugation and subsequently diluted to a final concentration of 0.05% (w/v) in 250 ml Erlenmeyer flask containing 50 ml of R4 medium. Desired elicitors were added to final concentrations indicated in the figures (typically 1-100 μM), and the cultures were incubated at 30° C. and 250 rpm. After 48 h, 1 ml was removed from each sample and transferred to a 1.5 ml RNase-free Eppendorf tube (Ambion). Each sample was centrifuged (16,000 g, 3 min) to collect the cells, the supernatant discarded, the cells flash-frozen in liquid N2, and stored at −80° C.
RNA isolation was carried out using the Qiagen RNeasy kit following the manufacturer's instructions without modifications. Upon isolation, contaminating DNA was removed using the DNA-free kit (Ambion) according to manufacturer's instructions. Gel electrophoreses subsequently confirmed RNA integrity (FIG. S2). Finally, total RNA was converted into cDNA via the PrimeScript™ RT reagent Kit (Takara) using random hexamers as primers and 500 ng of each RNA sample as template.
Three genes (surA, surC and surR) were chosen for quantification by RT-qPCR. The primers were designed using primer-3-plus software available online. The primers were carefully chosen to give an amplicon length of 130-160 bp and a melting temperature of 60° C., though this was later optimized (see below and Table 2). The primers were chosen to vary in length between 18-22 bp, and, if possible, to contain a single G/C clamp at the 3′ end. To ensure optimal qPCR parameters, the genomic DNA of S. albus J1074 was isolated using the Wizard genomic DNA purification kit (Promega), and each amplicon was subsequently amplified using standard PCR conditions with a high-fidelity, proof-reading Q5 DNA polymerase (NEB). The PCR reactions were then separated on a 1.2% agarose gel, the amplicon excised, and gel-extracted with the Gel Extraction kit (Qiagen). The extracted DNA was used to optimize qPCR conditions. Using the amplicon template, the primer concentrations were first varied followed by the annealing/extension temperatures, which ranged from 58-68° C. in eight steps. The combination that gave the lowest quantification cycle (Cq) was used in the experiments (Table 2). The Cq was obtained with an automatic baseline determined by the CFX Manager Software (Bio-Rad). As positive controls, these standards were included in every plate that contained the experimental samples, along with no-DNA controls, in duplicates.
qPCR analysis was performed on a CFX96 Real-Time PCR Detection System (Bio-Rad) consisting of a C1000 Thermal Cycler and a CFX96 Real-Time System. The reaction was carried out in hard-shell, clear 96-well qPCR plates (Bio-Rad) and utilized the iTaq Universal SYBR Green Supermix (Bio-Rad). […]

S. albus = assay: Anti-bacterial effect of elicitor on the producing strain; assay type: cell-based, Streptomyces albus J1074; settings: at high concentrations
sur cluster = assay: High-throughput elicitor screen (HiTES), eGFPx3 reporter strains of the sur cluster; assay type: cell-based, Streptomyces albus J1074; settings: attB::Psur-eGFPx3 and surE::eGFPx3, ~33 μM, 60 h, hit threshold 2.5-fold eGFP fluorescence
Experimental: These next four steps are seen be referring to the previously described example. In the previously described example, HiTES was carried out using the two constructs seen in FIGS. 2B and 2C with a ˜500-member natural products library. Each S. albus construct was grown in a 96-well format, supplemented with the compound library, and the effect of each compound on the silent BGC determined using eGFP-derived fluorescence. Interference from naturally fluorescent compounds in the library was eliminated by subtracting the […], immediately after addition of the library members.
Referring to FIGS. 3A and 3B, results for both genetic constructs are shown. These graphs show relative expression of a neutral site reporter, attB::Psur-eGFPx3 (FIG. 3A) or targeted sur reporter, surE::eGFPx3 (FIG. 3B) as a function of exogenously-supplied small molecules. Each bar represents the level of expression of sur in the presence of a single candidate elicitor. Plus signs denote the positive control, attB::PermE-eGFPx3. Minus signs denote the negative controls, attB::Psur-eGFPx3 (3A) or surE::eGFPx3 (3B) in the absence of any metabolites. The expression has been normalized to the positive control.
In this example, the threshold amount was a 2.5 fold induction of eGFP-derived fluorescence emission. Thus, hits were considered those that gave at least a 2.5-fold induction of eGFP-derived fluorescence emission. However, in other embodiments, hits may be those giving at least a 2 fold induction, more preferably at least a 3 fold induction, and more preferably at least a 4 fold induction.
Seed cultures for the reporter strains sur::eGFPx3, attB::Psur-eGFPx3, negative control wild-type, and positive control attB::PermE-eGFPx3 inoculated by transferring fresh spores (˜10^7) into 20 mL of YEME medium (per L: 3% (w/v) yeast extract, 5% peptone, 3% malt extract, 1% glucose and 10.7% sucrose, and 5 mM MgCl2.6H2O) in a 125 mL Erlenmeyer flask equipped with stain-less steel springs. The cultures were grown at 30° C. and 250 rpm for 3 days. Mycelia from each of the four cultures were collected by centrifugation (10 min, 3000 g, RT) and diluted into 150 mL of R4 medium to give a final concentration of 0.05% (w/v). R4 medium consisted of (per L) 0.5% (w/v) glucose, 0.1% yeast extract, 0.5% MgCl2.6H2O, 0.2% CaCl2.2H2O, 0.15% proline, 0.118% valine, 0.28% TES, 50 mg/L casamino acid, 100 mg/L K2SO4, and 1× trace element solution, which contains 40 mg/L ZnCl2, 200 mg/L FeCl3.6H2O, 10 mg/L CuCl2.2H2O, 10 mg/L MnCl2.4H2O, 10 mg/L Na2B4O7.10H2O, and 10 mg/L (NH4)6Mo7O24.4H2O).
Subsequently, the two reporter strains (sur::eGFPx3 and attB::Psur-eGFPx3) were each dispensed into 5× sterile, clear-bottom 96-well plates (150 μL per well) using a MultiFlo Microplate Dispenser (BioTek). A separate sterile 96-well separate plate was prepared for positive and negative controls; it contained the negative control (wt S. albus J1074) in columns 1-3, sur::eGFPx3 in columns 4-6, attB::Psur-eGFPx3 in columns 7-9, and the positive control attB::PermE-eGFPx3 in columns 10-12 of the plate. No elicitors were added to the control plates. […] Upon additional of the compound library, t=0 fluorescence reads were recorded on a Synergy H1MF plate reader (BioTek) using Aex=485 nm and Aem=505-650 nm in 5 nm steps. […]

## CN[C@@H]1[C@H](O)[C@H](NC)[C@H]2O[C@@]3(O)C(=O)C[C@@H](C)O[C@H]3O[C@@H]2[C@H]1O [Spectinomycin]
S. avermitilis
  concentration that inhibited growth: greater than 7.5 ug/mL
SAV3643 and SAV3665
  upregulation of SAV3643 and SAV3665: 40-50 fold
Gene cluster 3648
  elicitor of gene cluster 3648 (ranking): top four elicitors

## CC1(C)CCC2=C(O1)c1ccccc1C(=O)C2=O [beta-Lapachone]
Gene cluster 4286
  elicitor of gene cluster 4286 (ranking): top three elicitors
Gene cluster 4477
  elicitor of gene cluster 4477 (ranking): top three elicitors
Gene cluster 4143
  elicitor of gene cluster 4143 (ranking): top three elicitors
Gene cluster 2875
  elicitor of gene cluster 2875 (ranking): top two elicitors
Gene cluster 2631
  elicitor of gene cluster 2631 (ranking): top three elicitors

## COc1cc([C@@H]2c3cc4c(cc3[C@@H](O[C@@H]3O[C@@H]5CO[C@@H](C)O[C@H]5[C@H](O)[C@H]3O)[C@H]3COC(=O)[C@H]23)OCO4)cc(OC)c1O [etoposide]
surA and surC; at the optimal elicitor concentration, vs DMSO
  upregulation of surC: ~10 fold
surA and surC; dose-response, RT-qPCR
  final concentration yielding optimal upregulation of sur: ~23 µM
surA and surC; mRNA vs DMSO control, wt S. albus
  induction of surA and surC: 3 fold
S. albus
  anti-bacterial effect on S. albus: had anti-bacterial effects on S. albus
Sur cluster
  induction of the sur cluster in both reporter strains (hit ranking): best hits
